According to PMC6277767, “Broad and Region-Specific Impacts of the Synthetic Cannabinoid CP 55,940 in Adolescent and Adult Female Mouse Brains” (Frontiers in Molecular Neuroscience, 2018):

Test system: CD1 female mouse brain lipidome
Assay: Brain-region lipid levels (HPLC/MS/MS lipidomics) 2 h after single i.p. 3 mg/kg CP 55,940 vs vehicle
Assay type: in vivo
Set-up: N-arachidonoyl phenylalanine level, Mean / N-stearoyl tryptophan level, Mean / N-stearoyl proline level, Mean / N-stearoyl leucine level, Mean / N-stearoyl phenylalanine level, Mean / N-stearoyl serine level, Mean / N-stearoyl methionine level, Mean: unit: moles per gram
Method: The Bloomington Institutional Animal Care and Use Committee of Indiana University reviewed and approved the animal procedures. Female mice from the CD1 strain were utilized to match our study examining THC’s effects on the brain lipidome ([Leishman et al., 2018]). Mice were given a single i.p. injection of either 3 mg/kg CP or 1:1:18 cremophor:ethanol:saline vehicle (please refer to the section “3 mg/kg CP Is Relevant for Synthetic Cannabinoid Abuse and Has Stronger Effects on the Female Mouse Brain Lipidome During Adolescence” for a justification of dose and use of female mice). Three different age groups were given injections: PND 35 and PND 50 adolescents, and adult mice (PND 113). At least eight mice in each age group received CP and at least eight received vehicle. Matching the THC study time course ([Leishman et al., 2018]), mice were sacrificed via rapid decapitation 2 h after injection. Brains were immediately removed and flash-frozen in liquid nitrogen, and then stored at -80°C until dissections were performed. Brains were dissected on an ice-cold dissection plate into the following regions: STR, HIPP, CER, THAL, CTX, HYP, MID, and STEM. These abbreviations for these brain areas will be used exclusively when discussing the results generated by these specific dissections. Each dissected area was immediately placed in liquid nitrogen and then stored at -80°C until used for lipid extraction.
Tissue extracts were performed as previously described ([Bradshaw et al., 2006]; [Stuart et al., 2013]; [Raboune et al., 2014]; [Leishman et al., 2016a],[b], [2017], [2018]). First, samples were shock frozen in liquid nitrogen, weighed, and transferred to a centrifuge tube. The mass of the largest sample was multiplied by 50 to determine how many milliliters of HPLC-grade methanol (Fisher, Fair Lawn, NJ, United States) to add. Then, samples were spiked with 500 pmol deuterium-labeled NAGly (d8NAGly; Cayman Chemical, Ann Arbor, MI, United States). Samples were placed on ice in darkness for 2 h then individually homogenized and centrifuged at 19,000 × g for 20 min at 20°C. Supernatants were diluted with HPLC water (purified in house) to make a solution of 75% water, 25% supernatant. Lipids were partially purified on C18 solid phase extraction columns (Agilent, Palo Alto, CA, United States). A series of four elutions with 1.5 mL of 60%, 75%, 85%, and 100% methanol were collected ([Stuart et al., 2013]; [Leishman et al., 2016a],[b], [2018]).
As previously described ([Bradshaw et al., 2006]; [Tan et al., 2006]; [Smoum et al., 2010]; [Stuart et al., 2013]; [Tortoriello et al., 2013]; [Raboune et al., 2014]; [Leishman et al., 2016a],[b], [2017], [2018]), samples were analyzed using an Applied Biosystems API 3000 triple quadrupole mass spectrometer with electrospray ionization (Foster City, CA, United States). Using an Agilent XDB-C18 reversed phase analytical column and optimized mobile phase gradients, 20 μL from each elution were chromatographed. Two Shimadzu 10ADvp pumps (Columbia, MD, United States) provided the pressure for gradient elution. Mobile phase A: 20% methanol, 80% water (v/v) and 1 mM ammonium acetate (Sigma, St. Louis, MO, United States). Mobile phase B: 100% methanol, 1 mM ammonium acetate. Every method run began with 0% mobile phase B, reached 100% mobile phase B flowing at 0.2 mL/min, and gradually returned to 0% mobile phase B.
This screening library will be referred to as the lipidome when discussing data from this study. HPLC/MS/MS data were analyzed using Analyst software (Applied Biosystems) ([Bradshaw et al., 2006]; [Tan et al., 2006]; [Stuart et al., 2013]; [Tortoriello et al., 2013]; [Raboune et al., 2014]; [Leishman et al., 2016a],[b], [2017], [2018]). Chromatograms (Supplementary Figure 3) were generated by determining the retention time of analytes from the analytical column with a [M-1] or [M+1] parent peak and a fragmentation peak corresponding to the programmed values. […]

[1] = hypothalamus, PND 35 adolescent female mice, 3 mg/kg
[2] = midbrain, PND 50, 3mg/kg CP 55,940
[3] = midbrain, PND 50, 3mg/kg CP 55,940, ANOVA p .000
[4] = midbrain, PND 50, 3mg/kg CP 55,940, ANOVA p .001
[5] = midbrain, PND 50, 3mg/kg CP 55,940, ANOVA p .003
[6] = midbrain, PND 50 female mice, 3mg/kg CP 55,940

CCCCCCC(C)(C)c1ccc([C@@H]2C[C@H](O)CC[C@H]2CCCO)c(O)c1 [CP 55,940]
N-stearoyl leucine level, Mean [1]: 1.34E-12 | N-stearoyl phenylalanine level, Mean [1]: 1.92E-12 | N-stearoyl serine level, Mean [1]: 2.17E-11 | N-stearoyl tryptophan level, Mean [1]: 7.7E-12 | Oleic acid level, Mean [1]: 7.46E-10 | PGE2 level, Mean [1]: 2.42E-10 | PhosphoLEA level, Mean [1]: 6.47E-11 | 2-linoleoyl glycerol Direction (relative to Veh) [2]: ↓ | 2-oleoyl glycerol, Direction (relative to Veh) [2]: ↓ | 6-ketoPGF1α Direction (relative to Veh) [2]: ↓ | Arachidonic acid, Direction (relative to Veh) [2]: ↓ | Linoleic acid, Direction (relative to Veh) [2]: ↓ | N-arachidonoyl GABA Direction (relative to Veh) [2]: ↓ | N-arachidonoyl alanine, Direction (relative to Veh) [2]: ↓ | N-arachidonoyl ethanolamine, Direction (relative to Veh) [2]: ↓ | N-arachidonoyl glycine Direction (relative to Veh) [2]: ↓ | N-arachidonoyl methionine, Direction (relative to Veh) [2]: ↓ | N-arachidonoyl phenylalanine, Direction (relative to Veh) [2]: ↓ | N-arachidonoyl tyrosine, Direction (relative to Veh) [2]: ↓ | N-docosahexaenoyl GABA Direction (relative to Veh) [2]: ↓ | N-docosahexaenoyl ethanolamine, Direction (relative to Veh) [2]: ↓ | N-docosahexaenoyl leucine Direction (relative to Veh) [2]: ↑ | N-linoleoyl ethanolamine, Direction (relative to Veh) [2]: ↓ | N-oleoyl ethanolamine, Direction (relative to Veh) [2]: ↓ | N-oleoyl methionine, Direction (relative to Veh) [2]: ↓ | N-palmitoyl alanine, Direction (relative to Veh) [2]: ↓ | N-palmitoyl ethanolamine, Direction (relative to Veh) [2]: ↓ | N-palmitoyl leucine, Direction (relative to Veh) [2]: ↑ | N-palmitoyl serine, Direction (relative to Veh) [2]: ↓ | N-stearoyl methionine, Direction (relative to Veh) [2]: ↓ | N-stearoyl phenylalanine, Direction (relative to Veh) [2]: ↓ | PGE2 Direction (relative to Veh) [2]: ↓ | PGF2α Direction (relative to Veh) [2]: ↓ | Arachidonic acid, Magnitude (x Veh level) [3]: 0.74 x Veh level | N-arachidonoyl glycine Magnitude (x Veh level) [3]: 0.65 x Veh level | N-arachidonoyl methionine, Magnitude (x Veh level) [3]: 0.64 x Veh level | N-arachidonoyl phenylalanine, Magnitude (x Veh level) [3]: 0.69 x Veh level | N-arachidonoyl tyrosine, Magnitude (x Veh level) [4]: 0.68 x Veh level | PGE2 Magnitude (x Veh level) [4]: 0.75 x Veh level | N-palmitoyl leucine, Magnitude (x Veh level) (midbrain, PND 50, 3mg/kg CP 55,940, ANOVA p .002): 1.33 x Veh level | N-docosahexaenoyl GABA Magnitude (x Veh level) [5]: 0.71 x Veh level | N-linoleoyl ethanolamine, Magnitude (x Veh level) [5]: 0.81 x Veh level | Linoleic acid, Magnitude (x Veh level) (midbrain, PND 50, 3mg/kg CP 55,940, ANOVA p .004): 0.75 x Veh level | PGF2α Magnitude (x Veh level) (midbrain, PND 50, 3mg/kg CP 55,940, ANOVA p .007): 0.82 x Veh level | N-palmitoyl ethanolamine, Magnitude (x Veh level) (midbrain, PND 50, 3mg/kg CP 55,940, ANOVA p .011): 0.86 x Veh level | 2-linoleoyl glycerol Magnitude (x Veh level) (midbrain, PND 50, 3mg/kg CP 55,940, ANOVA p .017): 0.82 x Veh level | N-arachidonoyl GABA Magnitude (x Veh level) (midbrain, PND 50, 3mg/kg CP 55,940, ANOVA p .021): 0.73 x Veh level | N-docosahexaenoyl ethanolamine, Magnitude (x Veh level) (midbrain, PND 50, 3mg/kg CP 55,940, ANOVA p .023): 0.81 x Veh level | N-oleoyl methionine, Magnitude (x Veh level) (midbrain, PND 50, 3mg/kg CP 55,940, ANOVA p .026): 0.54 x Veh level | N-arachidonoyl ethanolamine, Magnitude (x Veh level) (midbrain, PND 50, 3mg/kg CP 55,940, ANOVA p .031): 0.83 x Veh level | N-oleoyl ethanolamine, Magnitude (x Veh level) (midbrain, PND 50, 3mg/kg CP 55,940, ANOVA p .037): 0.83 x Veh level | N-stearoyl methionine, Magnitude (x Veh level) (midbrain, PND 50, 3mg/kg CP 55,940, ANOVA p .042): 0.78 x Veh level | N-palmitoyl serine, Magnitude (x Veh level) (midbrain, PND 50, 3mg/kg CP 55,940, ANOVA p .048): 0.84 x Veh level | N-arachidonoyl alanine Magnitude (x Veh level) (midbrain, PND 50, 3mg/kg CP 55,940, ANOVA p .057): 0.62 x Veh level | N-docosahexaenoyl leucine Magnitude (x Veh level) (midbrain, PND 50, 3mg/kg CP 55,940, ANOVA p .063): 1.47 x Veh level | 2-oleoyl glycerol, Magnitude (x Veh level) (midbrain, PND 50, 3mg/kg CP 55,940, ANOVA p .073): 0.89 x Veh level | N-stearoyl phenylalanine, Magnitude (x Veh level) (midbrain, PND 50, 3mg/kg CP 55,940, ANOVA p .077): 0.85 x Veh level | N-palmitoyl alanine, Magnitude (x Veh level) (midbrain, PND 50, 3mg/kg CP 55,940, ANOVA p .081): 0.77 x Veh level | 6-ketoPGF1α Magnitude (x Veh level) (midbrain, PND 50, 3mg/kg CP 55,940, ANOVA p .089): 0.75 x Veh level | 2-arachidonoyl glycerol level, Mean [6]: 3.27E-10 | 2-linoleoyl glycerol level, Mean [6]: 3.73E-10 | 2-oleoyl glycerol level, Mean [6]: 4.95E-09 | 2-palmitoyl glycerol level, Mean [6]: 3.34E-09 | 6-ketoPGF1α level, Mean [6]: 1.22E-11 | 11-OH-THC level, Mean [6]: BDL | 11-nor-9-carboxyTHC level, Mean [6]: BDL | Arachidonic acid level, Mean [6]: 3.1E-10 | Cannabidiol level, Mean [6]: BDL | Linoleic acid level, Mean [6]: 2.67E-10 | N- stearoyl valine level, Mean [6]: 9.43E-14 | N-arachidonoyl GABA level, Mean [6]: 1.55E-11 | N-arachidonoyl alanine level, Mean [6]: 9.08E-14 | N-arachidonoyl dopamine level, Mean [6]: BDL | N-arachidonoyl ethanolamine level, Mean [6]: 3.81E-11 | N-arachidonoyl glycine level, Mean [6]: 4.39E-12 | N-arachidonoyl methionine level, Mean [6]: 1.8E-13 | N-arachidonoyl phenylalanine level, Mean [6]: 5.45E-13 | N-arachidonoyl proline level, Mean [6]: BDL | N-arachidonoyl serine level, Mean [6]: 7.6E-12 | N-arachidonoyl taurine level, Mean [6]: 1.38E-11 | N-arachidonoyl tryptophan level, Mean [6]: BDL | N-arachidonoyl tyrosine level, Mean [6]: 3.91E-13 | N-docosahexaenoyl GABA level, Mean [6]: 1.45E-12 | N-docosahexaenoyl alanine level, Mean [6]: PISSR | N-docosahexaenoyl ethanolamine level, Mean [6]: 5.23E-11 | N-docosahexaenoyl glycine level, Mean [6]: 5.53E-13 | N-docosahexaenoyl leucine level, Mean [6]: 1.28E-13 | N-docosahexaenoyl methionine level, Mean [6]: BDL | N-docosahexaenoyl phenylalanine level, Mean [6]: 6.24E-13 | N-docosahexaenoyl proline level, Mean [6]: BDL | N-docosahexaenoyl serine level, Mean [6]: 1.85E-11 | N-docosahexaenoyl tryptophan level, Mean [6]: BDL | N-docosahexaenoyl tyrosine level, Mean [6]: 5.71E-13 | N-docosahexaenoyl valine level, Mean [6]: PISSR | N-linoleoyl GABA level, Mean [6]: 1.04E-12 | N-linoleoyl alanine level, Mean [6]: PISSR | N-linoleoyl ethanolamine level, Mean [6]: 5.21E-11 | N-linoleoyl glycine level, Mean [6]: 2.23E-13 | N-linoleoyl leucine level, Mean [6]: 3.86E-14 | N-linoleoyl methionine level, Mean [6]: BDL | N-linoleoyl phenylalanine level, Mean [6]: 1.31E-13 | N-linoleoyl proline level, Mean [6]: BDL
